Data taken from patent US12281095B2, “Pesticidally active diazine-amide compounds” (SYNGENTA CROP PROTECTION AG, priority 2019, dated 2025).

Columns and labels:
Format in all cases: in vivo
[1] = tested on: Chilo suppressalis (Striped Rice Stemborer); test: Example B4: Chilo suppressalis (Striped Rice Stemborer), artificial diet; conditions: 144 h, application rate of 200 ppm, L2 larvae, 6 days after infestation, read-out: control in at least one of the three categories (mortality, anti-feedant or growth inhibition)
Experimental: Example B4: Chilo suppressalis (Striped Rice Stemborer)
24-well microtiter plates with artificial diet were treated with aqueous test solutions prepared from 10′000 ppm DMSO stock solutions by pipetting. After drying, the plates were infested with L2 larvae (6-8 per well). The samples were assessed for mortality, anti-feeding effect, and growth inhibition in comparison to untreated samples 6 days after infestation. Control of Chilo suppressalis by a test sample is given when at least one of the categories mortality, anti-feedant effect, and growth inhibition is higher than the untreated sample.

[2] = tested on: Plutella xylostella (Diamond Back Moth); test: Example B5: Plutella xylostella (Diamond Back Moth), artificial diet, 24-well; conditions: 192 h, application rate of 200 ppm, eggs, 8 days after infestation, read-out: control in at least one of the two categories (mortality or growth inhibition)
Experimental: Example B5: Plutella xylostella (Diamond Back Moth)
24-well microtiter plates with artificial diet were treated with aqueous test solutions prepared from 10′000 ppm DMSO stock solutions by pipetting. After drying, Plutella eggs were pipetted through a plastic stencil onto a gel blotting paper and the plate was closed with it. The samples were assessed for mortality and growth inhibition in comparison to untreated samples 8 days after infestation.

[3] = tested on: Spodoptera littoralis (Egyptian Cotton Leaf Worm); test: Example B9: Spodoptera littoralis (Egyptian Cotton Leaf Worm), sprayed cotton leaf discs; conditions: foliar, 72 h, application rate of 200 ppm, L1 larvae, 3 days after infestation, read-out: control in at least one of the three categories (mortality, anti-feedant or growth inhibition)
[4] = tested on: Diabrotica balteata (Corn Root Worm); test: Example B1: Diabrotica balteata (Corn Root Worm), sprayed maize sprouts; conditions: 96 h, application rate of 200 ppm, L2 larvae, 4 days after infestation, read-out: control in at least one of the two categories (mortality or growth inhibition)
Experimental: Example B1: Diabrotica balteata (Corn Root Worm)
Maize sprouts placed onto an agar layer in 24-well microtiter plates were treated with aqueous test solutions prepared from 10′000 ppm DMSO stock solutions by spraying. After drying, the plates were infested with L2 larvae (6 to 10 per well). The samples were assessed for mortality and growth inhibition in comparison to untreated samples 4 days after infestation.

C[C@@H](c1nccnc1-c1ccc(C#N)cn1)N(CC1CC1)C(=O)c1cc(C(F)(F)F)cc(C(F)(F)C2CC2)c1 [P43, N-[(1S)-1-[3-(5-cyano-2-pyridyl)pyrazin-2-yl]ethyl]-3-[cyclopropyl(difluoro)methyl]-N-(cyclopropylmethyl)-5-(trifluoromethyl)benzamide]
≥ 80%: percent control (mortality, anti-feedant effect or growth inhibition) at 200 ppm [1] | percent control (mortality or growth inhibition) at 200 ppm [2] | percent control (mortality, anti-feedant effect or growth inhibition) at 200 ppm [3] | percent control (mortality or growth inhibition) at 200 ppm [4]

CC(NC(=O)c1cc(C(F)(F)F)cc(C(F)(F)C2CC2)c1)c1nccnc1-c1ncc(OCC(F)(F)F)cn1 (stereo not drawn) [P4, 3-[cyclopropyl(difluoro)methyl]-N-[1-[3-[5-(2,2,2-trifluoroethoxy)pyrimidin-2-yl]pyrazin-2-yl]ethyl]-5-(trifluoromethyl)benzamide]
≥ 80%: percent control (mortality, anti-feedant effect or growth inhibition) at 200 ppm [1] | percent control (mortality or growth inhibition) at 200 ppm [2] | percent control (mortality, anti-feedant effect or growth inhibition) at 200 ppm [3] | percent control (mortality or growth inhibition) at 200 ppm [4]

C[C@H](NC(=O)c1cc(C(F)(F)F)cc(C(F)(F)C2CC2)c1)c1nccnc1-c1ccc(C#N)cn1 [P42, N-[(1S)-1-[3-(5-cyano-2-pyridyl)pyrazin-2-yl]ethyl]-3-[cyclopropyl(difluoro)methyl]-5-(trifluoromethyl)benzamide]
≥ 80%: percent control (mortality, anti-feedant effect or growth inhibition) at 200 ppm [1] | percent control (mortality or growth inhibition) at 200 ppm [2] | percent control (mortality, anti-feedant effect or growth inhibition) at 200 ppm [3] | percent control (mortality or growth inhibition) at 200 ppm [4]

CC(NC(=O)c1cc(C(F)(F)F)nc(C2(C#N)CC2)c1)c1nccnc1-c1ccc(C#N)cn1 (stereo not drawn) [P16, 2-(1-cyanocyclopropyl)-N-[1-[3-(5-cyano-2-pyridyl)pyrazin-2-yl]eth-yl]-6-(trifluoromethyl)pyridine-4-carboxamide]
≥ 80%: percent control (mortality, anti-feedant effect or growth inhibition) at 200 ppm [1] | percent control (mortality or growth inhibition) at 200 ppm [2] | percent control (mortality, anti-feedant effect or growth inhibition) at 200 ppm [3] | percent control (mortality or growth inhibition) at 200 ppm [4]

CC(NC(=O)c1cc(C(F)(F)F)cc(C2(C#N)CC2)c1)c1nccnc1-c1ccc(OC(F)F)cn1 (stereo not drawn) [P3, 3-(1-cyanocyclopropyl)-N-[1-[3-[5-(difluoromethoxy)-2-pyridyl]pyrazin-2-yl]ethyl]-5-(trifluoromethyl)benzamide]
≥ 80%: percent control (mortality, anti-feedant effect or growth inhibition) at 200 ppm [1] | percent control (mortality or growth inhibition) at 200 ppm [2] | percent control (mortality, anti-feedant effect or growth inhibition) at 200 ppm [3] | percent control (mortality or growth inhibition) at 200 ppm [4]

CC(NC(=O)c1cc(C2CC2)cc(C(F)(F)F)c1)c1nccnc1-c1ncc(OCC(F)(F)F)cn1 (stereo not drawn) [P6, 3-cyclopropyl-N-[1-[3-[5-(2,2,2-trifluoroethoxy)pyrimidin-2-yl]pyrazin-2-yl]ethyl]-5-(trifluoromethyl)benzamide]
≥ 80%: percent control (mortality, anti-feedant effect or growth inhibition) at 200 ppm [1] | percent control (mortality or growth inhibition) at 200 ppm [2] | percent control (mortality, anti-feedant effect or growth inhibition) at 200 ppm [3] | percent control (mortality or growth inhibition) at 200 ppm [4]

CC(NC(=O)c1cc(C2CC2)cc(C(F)(F)F)c1)c1nccnc1-c1ccc(C#N)cn1 (stereo not drawn) [P14, N-[1-[3-(5-cyano-2-pyridyl)pyra-zin-2-yl]ethyl]-3-cyclopropyl-5-(trifluoromethyl)benzamide]
≥ 80%: percent control (mortality, anti-feedant effect or growth inhibition) at 200 ppm [1] | percent control (mortality or growth inhibition) at 200 ppm [2] | percent control (mortality, anti-feedant effect or growth inhibition) at 200 ppm [3]

CC(NC(=O)c1cc(C(F)(F)F)cc(C(C)(C)C#N)c1)c1nccnc1-c1ccc(OCC(F)(F)F)cn1 (stereo not drawn) [P10, 3-(1-cyano-1-methyl-ethyl)-N-[1-[3-[5-(2,2,2-trifluoroethoxy)-2-pyridyl]pyrazin-2-yl]ethyl]-5-(trifluoromethyl)benzamide]
≥ 80%: percent control (mortality, anti-feedant effect or growth inhibition) at 200 ppm [1] | percent control (mortality or growth inhibition) at 200 ppm [2] | percent control (mortality, anti-feedant effect or growth inhibition) at 200 ppm [3]
